Data taken from US20220112187A1, “PYRAZOLOPYRIDINE AMINE COMPOUNDS FOR THE TREATMENT OF AUTOIMMUNE DISEASE” (Hoffmann-La Roche Inc., priority 2018, published 2022).

Target: T1, human TLR8 (Homo sapiens, UniProt Q9NR97)
T1 sequence (Q9NR97 27-1041): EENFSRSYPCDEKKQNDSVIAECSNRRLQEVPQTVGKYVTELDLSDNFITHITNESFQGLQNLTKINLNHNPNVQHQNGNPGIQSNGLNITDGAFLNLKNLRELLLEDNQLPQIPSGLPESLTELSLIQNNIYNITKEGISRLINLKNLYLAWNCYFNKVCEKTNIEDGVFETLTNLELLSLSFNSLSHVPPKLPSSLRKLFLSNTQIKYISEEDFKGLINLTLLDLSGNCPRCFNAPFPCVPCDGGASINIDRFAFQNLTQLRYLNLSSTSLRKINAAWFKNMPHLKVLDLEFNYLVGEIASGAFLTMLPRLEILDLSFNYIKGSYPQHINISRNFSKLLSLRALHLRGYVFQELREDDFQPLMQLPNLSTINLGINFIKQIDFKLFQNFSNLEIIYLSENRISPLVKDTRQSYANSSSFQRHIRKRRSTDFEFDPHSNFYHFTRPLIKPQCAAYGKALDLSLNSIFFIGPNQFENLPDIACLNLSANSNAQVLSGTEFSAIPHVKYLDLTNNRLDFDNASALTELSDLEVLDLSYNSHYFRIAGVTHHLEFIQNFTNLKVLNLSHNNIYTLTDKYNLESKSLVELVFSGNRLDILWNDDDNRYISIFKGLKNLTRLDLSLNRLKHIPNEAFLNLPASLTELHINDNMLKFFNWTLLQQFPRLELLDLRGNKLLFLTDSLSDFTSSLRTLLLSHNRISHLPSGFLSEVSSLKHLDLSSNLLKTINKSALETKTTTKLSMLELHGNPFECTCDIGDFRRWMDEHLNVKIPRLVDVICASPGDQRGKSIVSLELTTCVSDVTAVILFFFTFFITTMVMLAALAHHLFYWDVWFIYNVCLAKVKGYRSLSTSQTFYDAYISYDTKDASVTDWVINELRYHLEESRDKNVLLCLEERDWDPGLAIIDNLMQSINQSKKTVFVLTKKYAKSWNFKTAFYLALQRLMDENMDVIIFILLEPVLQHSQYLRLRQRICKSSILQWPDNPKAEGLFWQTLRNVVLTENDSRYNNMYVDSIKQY
Experiment: HEK293-Blue-hTLR-8 cells assay (SEAP reporter, R848 stimulation)
Assay type: cell-based
Details: HEK293-Blue-hTLR8 cells, R848 ligand, 20 hrs incubation
Outline: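 Antagonist mode: HEK293-Blue-hTLR8 cells with serially diluted compound (1% DMSO final) plus R848 (10 μL of 60 uM stock) for 20 hrs at 37° C. Supernatant NF-κB/AP-1-driven SEAP measured with QUANTI-Blue substrate, 2 hrs at 37° C, absorbance 620–655 nm.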

IC50: 130 nM
SMILES: C[C@@H]1CN(c2ccc(C#N)n3nccc23)C[C@H](CN2CCN(C3CCNCC3)CC2Cc2ccccc2)O1 (stereo partly drawn) [Example 77, 4-[(2S,6R)-2-[[2-benzyl-4-(4-piperidyl)piperazin-1-yl]methyl]-6-methyl-morpholin-4-yl]pyrazolo[1,5-a]pyridine-7-carbonitrile]
